Experiments:
Soybean plants [1] = experiment: Soil drench assay, soybean plants; assay type: in vivo; design: key to phytotoxicity (qualitative), soil drench: NOE: No Observable Effect; XXX: Dead; -: the lowest phytotoxic effect; --: phytotoxicity that did not result in death; ---: phytotoxicity that did not result in death; ------: the highest; details: for overall phytotoxicity to soybean plants, soil drench: 0.5%-1% formulations; for phytotoxicity (qualitative), soil drench: Soybean, 40 mL
Protocol: Soybean plants were planted under 1 cm of potting soil and watered every 2-3 days as necessary. Plants were grown in pots (6″ wide×4.5″ deep) with approximately 800 mL of soil for each plant. Seeds germinated approximately 3-5 days after being planted. Plants were grown in a greenhouse under a constant temperature and light environment (25±5° C., 12 hr: 12 hr light: dark cycle). Plants were grown until reaching 1-2 weeks old and 3-4 weeks old; these plants served as the “young” and “old” plants in this study, respectively.
Formulations of the various active ingredients were created using the monoterpenoid derivatives, potassium hydroxide, and Triton-X 100™ to aid in the solvation of the active ingredient. Formulations consisted of 0.5%-1% active ingredient by weight (0.5-1 g/100 ml water), with a 1:1 molar ratio of potassium hydroxide used to aid in the solvation (135-269 mg/100 mL for both thymyloxyacetic acid and carvacryloxyacetic acid). […] Formulations were applied to the soil next to the base of the stem of the plant to avoid foliar contact. Observations were performed 2 days and 3 weeks after soil drench to determine the effects of the treatments on the various types and stages of plants.

Corn plants = experiment: Soil drench assay, corn plants; assay type: in vivo; design: key to phytotoxicity (qualitative), soil drench: NOE: No Observable Effect; XXX: Dead; -: the lowest phytotoxic effect; --: phytotoxicity that did not result in death; ---: phytotoxicity that did not result in death; ------: the highest; details: for overall phytotoxicity to corn plants, soil drench: 0.5%-1% formulations; for phytotoxicity (qualitative), soil drench: Corn, 40 mL
Protocol: Corn plants were planted under ½″ of potting soil and watered every 2-3 days as necessary. Plants were grown in potting plants (6″ wide×4.5″ deep) with approximately 800 mL of soil for each plant. Seeds germinated approximately 4-7 days after being planted. Plants were grown in a greenhouse under a constant temperature and light environment (25±5° C., 12 hr: 12 hr light: dark cycle). Plants were grown until reaching 1-2 weeks old and 3-4 weeks old; these plants served as the “young” and “old” plants in this study, respectively. Formulations of the various active ingredients were created using the monoterpenoid derivatives, potassium hydroxide, and Triton-X 100™ to aid in the solvation of the active ingredient. […] Formulations were applied to the soil next to the base of the stem of the plant to avoid foliar contact. Observations were performed 2 days and 3 weeks after soil drench to determine the effects of the treatments on the various types and stages of plants.

Soybean plants [2] = experiment: Soil drench assay, soybean plants; assay type: in vivo; design: key: NOE: No Observable Effect; XXX: Dead; -: the lowest phytotoxic effect; --: phytotoxicity that did not result in death; ---: phytotoxicity that did not result in death; ------: the highest; details: 3-weeks after treatment, Old Plants, 7%, 40 mL
corn seeds = experiment: Germination assay, corn seeds coated with compound; details: for inhibition of corn seed germination: seed coating 1% weight compound/weight seed, 3, 5, 7 days
soybeans = experiment: Germination assay, soybeans coated with compound; assay type: in vivo, soybean; details: beans coated in 1% weight compound/weight bean
Source text: Soybeans were susceptible to Aphis glycines infestation and were not determined to be a biotype that was resistant to infestation, which could confide results. Germination typically occurred between 3-5 days after moistening.

[3] = 2-days after treatment, Old Plants, 0.50%
[4] = 2-days after treatment, Young Plants, 0.50%
[5] = 3-weeks after treatment, Old Plants, 0.50%
[6] = 3-weeks after treatment, Young Plants, 0.50%
[7] = 3-weeks after treatment, Young Plants, 1%
[8] = 2-days after treatment, Old Plants, 1%
[9] = 2-days after treatment, Young Plants, 1%
[10] = 3-weeks after treatment, Old Plants, 1%

| SMILES | overall phytotoxicity to soybean plants, soil drench (Soybean plants [1]) | phytotoxicity (qualitative), soil drench (Soybean plants [1]; [3]) | phytotoxicity (qualitative), soil drench (Soybean plants [1]; [4]) | phytotoxicity (qualitative), soil drench (Soybean plants [1]; [5]) | phytotoxicity (qualitative), soil drench (Soybean plants [1]; [6]) | phytotoxicity (qualitative), soil drench (Soybean plants [1]; [7]) | overall phytotoxicity to corn plants, soil drench (Corn plants) | phytotoxicity (qualitative), soil drench (Corn plants; [3]) | phytotoxicity (qualitative), soil drench (Corn plants; [8]) | phytotoxicity (qualitative), soil drench (Corn plants; [4]) | phytotoxicity (qualitative), soil drench (Corn plants; [9]) | phytotoxicity (qualitative), soil drench (Corn plants; [5]) | phytotoxicity (qualitative), soil drench (Corn plants; [10]) | phytotoxicity (qualitative), soil drench (Corn plants; [6]) | phytotoxicity (qualitative), soil drench (Corn plants; [7]) | phytotoxicity (qualitative), soil drench (Soybean plants [2]) | inhibition of corn seed germination (corn seeds) | phytotoxicity (qualitative), soil drench (Soybean plants [1]; [8]) | phytotoxicity (qualitative), soil drench (Soybean plants [1]; [9]) | inhibition of soybean germination/growth (words) (soybeans) | further results |
| --- | --- | --- | --- | --- | --- | --- | --- | --- | --- | --- | --- | --- | --- | --- | --- | --- | --- | --- | --- | --- | --- |
| COC(=O)COc1cc(C)ccc1C(C)C [thymyloxyacetate methyl ester] | significantly inhibited the growth of soybeans | --- | --- | XXX | XXX | XXX | most phytotoxic to corn | -- | -- | -- | -- | XXX | XXX | XXX | XXX | XXX |  |  |  |  |  |
| C=CCc1ccc(OCC(=O)OC)c(OC)c1 [eugenyloxyacetic acid methyl ester] |  |  |  |  |  |  |  |  |  |  |  |  |  |  |  |  | most capable of inhibiting the growth of corn seeds |  |  |  |  |
| COc1cc(C(=O)O)ccc1OCC(=O)O [vanillic acid-oxyacetic acid, 4-(carboxymethoxy)-3-methoxybenzoic acid] | did not cause phytotoxic effects | NOE | NOE | NOE | NOE | NOE | did not produce significant phytotoxic symptoms | NOE | NOE | NOE | NOE | NOE | NOE | NOE | NOE | NOE | significantly inhibited by all compounds screened except for | NOE | NOE |  |  |
| C=CCc1ccc(OCC(=O)O)c(OC)c1 [eugenyloxyacetic acid, 2-(4-allyl-2-methoxyphenoxy)acetic acid] |  | - | - | XXX | - | XXX |  | NOE | - | NOE | NOE | - | -- | - | -- | - |  | - | -- | prevented the growth of soybeans | corn seed germination at day 3 (corn seeds; seed coating, day 3): some level of germination |
| COc1cc(C=O)ccc1OCC(=O)O [vanillyloxyacetic acid, 2-(4-formyl-2-methoxyphenoxy)acetic acid] | did not cause phytotoxic effects | NOE | NOE | NOE | NOE | NOE | did not produce significant phytotoxic symptoms | NOE | NOE | NOE | NOE | NOE | NOE | NOE | NOE | NOE | significantly inhibited by all compounds screened except for | NOE | NOE | little to no inhibitory effect | inhibition of soybean germination/growth (words) (soybeans; listed as Vanillyloxyacetic acid): does not produce significant inhibition of plant growth |
